Reference: PubChem BioAssay (NCI)
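Each compound was tested at five concentrations against cells in 96-well plates for 48 hours. GI50: concentration for 50% inhibition of growth. The concentration for full growth arrest is given as TGI.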

What was measured:
Assay in all cases: NCI anticancer screen, dose series, 48 h
MOLT-4 leukemia = tested on: MOLT-4 leukemia
NCI-H226 lung = tested on: NCI-H226 lung
MDA-N = tested on: MDA-N
SW-620 colon = tested on: SW-620 colon
OVCAR-4 ovarian = tested on: OVCAR-4 ovarian
SNB-19 CNS = tested on: SNB-19 CNS
SN12C renal = tested on: SN12C renal
DU-145 prostate = tested on: DU-145 prostate
K-562 leukemia = tested on: K-562 leukemia
PC-3 prostate = tested on: PC-3 prostate
HCC-2998 colon = tested on: HCC-2998 colon

| SMILES | TGI (MOLT-4 leukemia) [µM] | TGI (NCI-H226 lung) [µM] | TGI (MDA-N) [µM] | TGI (SW-620 colon) [µM] | TGI (OVCAR-4 ovarian) [µM] | TGI (SNB-19 CNS) [µM] | TGI (SN12C renal) [µM] | TGI (DU-145 prostate) [µM] | TGI (K-562 leukemia) [µM] | TGI (PC-3 prostate) [µM] | TGI (HCC-2998 colon) [µM] | GI50 (MOLT-4 leukemia) [µM] | GI50 (NCI-H226 lung) [µM] | GI50 (DU-145 prostate) [nM] | GI50 (K-562 leukemia) [µM] | GI50 (HCC-2998 colon) [µM] |
| --- | --- | --- | --- | --- | --- | --- | --- | --- | --- | --- | --- | --- | --- | --- | --- | --- |
| CCC1(O)CC(O)c2c(O)c3c(c(O)c2C1C(=O)OC)C(=O)c1cccc(O)c1C3=O (configuration not stated) | 2.19 | 18.1 | 47.1 | > 48.2 | 13.9 | 20.9 | 17.3 | 21.8 | > 21.8 | 13 | 21.4 |  |  |  |  |  |
| O=C(c1ccccc1)c1ccc2nc(-c3c(Cl)c(Cl)c(Cl)c(Cl)c3C(=O)Nc3ccco3)[nH]c2c1 | > 100 | > 100 | 41 | > 100 | > 100 | > 100 | > 100 | > 100 | > 100 | > 100 | 53.1 |  |  |  |  |  |
| C#Cc1cccc(Nc2ncnc3cc(OCCOC)c(OCCOC)cc23)c1 | > 100 | > 100 | > 100 | > 100 | > 100 | 92 | > 51.6 | > 100 | > 100 | > 100 | > 100 | 24.2 | 47.4 | 1600 | 27.7 | > 88.8 |
| COc1ccc(/C=N/N=C(\N)NO)c(OC)c1OC | > 100 | 74.3 | > 100 | > 100 | > 100 | > 100 | > 100 | > 100 | > 100 | > 100 | > 100 |  |  |  |  |  |
| COc1cccc(OC/C(N=Cc2ccncc2)=N/NC(=O)c2ccncc2)c1 | > 100 | > 100 | > 100 | > 100 | > 100 | > 100 | > 100 | > 100 | > 100 | > 100 | > 100 |  |  |  |  |  |
| Cc1sc2nc3n(sc4nc5sc(C)c(C)c5c(=O)n43)c(=O)c2c1C | 52 | > 100 | > 100 | > 100 | > 100 | > 100 | > 100 | > 100 | > 100 | > 100 | > 100 |  |  |  |  |  |
| CCCCCCCCCCC[N+]1(Cc2ccccc2)CC2CCN(Cc3ccccc3)CC2C1 (configuration not stated) | 1.25 | 1.98 | 1.25 | 1.58 | 2.02 | 1.49 | 1.5 | 1.51 | 0.827 | 1.18 | 2 |  |  |  |  |  |
| CCCOC1OC(CS(=O)(=O)O)C(OC(C)=O)C(OC(C)=O)C1OC(C)=O (configuration not stated) | > 100 | > 100 | > 100 | > 100 | > 100 | > 100 | > 100 | > 100 | > 100 | > 100 | > 100 |  |  |  |  |  |
| O=C1NC(=S)N/C1=C\c1ccc(Sc2ccccc2C(=O)O)s1 | > 100 | > 100 | > 100 | > 100 | > 100 | > 100 | > 100 | > 100 | > 100 | > 100 | > 100 |  |  |  |  |  |
| CCOC(=O)c1c(SCCN2CCCCC2)n(-c2ccccc2)c(=S)n(-c2ccccc2)c1=O | 6.7 | 16.9 | 36.9 | 13.8 | 33 | > 100 | 37.5 | > 55.1 | 11 | 27.7 | > 53.4 |  |  |  |  |  |
| CCOC(=O)COC1=Nc2cc(OC)c(OC)c3nc(Cl)cc(c23)C1=O | 5.91 | 28.6 | 2.63 | > 21.6 | 3.14 | 22.1 | 3.3 | 3.32 | 7.2 | 3.45 | 10.5 |  |  |  |  |  |
| S=c1oc(CCCCCCCCc2nn(CNc3ccc(Cl)cc3)c(=S)o2)nn1CNc1ccc(Cl)cc1 | > 100 | > 100 | > 100 | > 100 | > 100 | > 100 | > 100 | > 100 | > 100 | > 100 | > 100 |  |  |  |  |  |
| C=C1CC(Cn2cc(Br)c(=O)[nH]c2=O)(c2ccc(Br)cc2)OC1=O (configuration not stated) | 6.13 | 36.6 | 7.46 | 3.79 | 4.63 | 30.4 | 20.8 | 15.5 | > 100 | 12.8 | 8.4 |  |  |  |  |  |
| CN1CCCC(OC(=O)c2cc3cc(CCl)ccc3oc2=O)C1 (configuration not stated) | 98 | 58.1 | 46 | 64.8 | 48.6 | > 100 | 43.6 | > 100 | > 100 | 41.3 | 33.1 |  |  |  |  |  |
| CCOC(=O)c1nc2ccccc2nc1Nc1ccc(F)cc1 | > 100 | > 63.7 | > 100 | > 100 | > 100 | 46.6 | > 100 | > 100 | > 100 | > 100 | > 100 |  |  |  |  |  |
| Cc1cn(C2CC(SCCO)C(CO)O2)c(=O)[nH]c1=O (configuration not stated) | > 100 | > 100 | > 100 | > 100 | > 100 | > 100 | > 100 | > 100 | > 100 | > 100 | > 100 |  |  |  |  |  |
| CN(c1ccc(Cl)cc1)S(=O)(=O)c1ccccc1 | > 100 | > 100 | > 100 | > 100 | > 100 | > 100 | > 100 | > 100 | > 100 | > 100 | > 100 |  |  |  |  |  |
